# Experimental data as given in US20130281504A1, “Reduction of Microglia-Mediated Neurotoxicity by KCa3.1 Inhibition” (THE REGENTS OF THE UNIVERSITY OF CALIFORNIA, priority 2010, published 2013).
# Values joined by “and” are separate entries in the source; they are usually repeats but may differ in a detail not shown here. Equal entries are not always repeated.
# How the values were obtained:
# [1] = system: microglia; assay: AβO-induced microglia proliferation/activation (cell number); type: cell-based, mouse; settings: soluble AD hippocampus extracts
# [2] = Pharmacokinetics and brain concentrations in rats (HPLC/MS); settings: rat
# Description: At various time points following the injection approximately 100-200 μl of blood were collected from a tail nick into EDTA blood sample collection tubes. […] Blood samples were taken by cardiac puncture under deep isoflurane anesthesia. The right atrium was then cut open and 20 mL of saline slowly injected into the left ventricle to flush the blood out of the circulation. The rats were then sacrificed and brains removed. Plasma was separated by centrifugation and samples stored at −80° C. pending analysis. Plasma and homogenized brain samples were purified using C18 solid phase extraction (SPE) cartridges. […] LC/MS analysis was performed with a Hewlett-Packard 1100 series HPLC stack equipped with a Merck KGaA RT 250-4 LiChrosorb RP-18 column interfaced to a Finnigan LCQ Classic MS. The mobile phase consisted of acetonitrile and water, both containing 0.2% formic acid.
# [3] = Plasma protein binding by ultrafiltration; type: in vitro ADME, rat; settings: rat plasma spiked with 50 and 100 μM
# Description: (§1) The centrifugate (=free TRAM-34) was directly analyzed for TRAM-34 by HPLC-MS. The retentate was collected by inverting the filter into an Eppendorf tube and spinning at 14000 rpm for 15 min.
# [4] = system: plasma protein; assay: Plasma protein binding by ultrafiltration; type: in vitro ADME, rat
# Description: as §1
# [5] = system: middle cerebral artery occlusion (MCAO); assay: MCAO with 7 days of reperfusion, treatment started 2 h after reperfusion; type: in vivo, rat; settings: 10 mg/kg twice daily 7 days from 2 h after reperfusion
# Text: Adult male Wistar rats weighing 160-180 g were purchased from Charles River (Wilmington, Mass.), acclimatized to the new vivarium for 5-7 days and used for the surgery when they weighed 200-230 g. Rats were anesthetized using box induction with 5% isoflurane and then maintained on 0.5%-1.5% isoflurane in medical grade oxygen via a facemask. In order to assure consistent reduction of cerebral blood flow (CBF) throughout the procedure, we affixed a small hand-made adaptor for the Laser Doppler probe (Moor Instruments, Wilmington, Del.) to the surface of the skull. The center of the adapter was 5 mm lateral to the central fusion line and 2.5 mm posterior to bregma. […] Neurological deficits were scored according to a 4-score test and a tactile and/or proprioceptive limb-placing test as follows: 1) 4-score test (higher score for more severe neurological deficits): 0=no apparent deficit; 1=contralateral forelimb is consistently flexed during suspension by holding the tail; 2=decreasing grip ability on the contralateral forelimb while tail pulled; 3=spontaneous movement in all directions but circling to contralateral side when pulled by the tail; 4=spontaneous contralateral circling or depressed level of consciousness. […] The paw was pulled down and away from the platform edge, and the ability to retrieve and place the paw on the table surface upon sudden release was assessed. […]
# [6] = system: middle cerebral artery occlusion (MCAO); assay: MCAO with 7 days of reperfusion, treatment started 12 h after reperfusion; type: in vivo, rat; set-up: key to neurological deficit, 4-score system: 0 = no deficit to 4 = most severe deficit; key to neurological deficit, 14-score system: 14-point limb placing score; lower = more severe deficit; settings: for mean infarct size (H&E defined lesion area): controls 22.6±3.6%
# Text: Adult male Wistar rats weighing 160-180 g were purchased from Charles River (Wilmington, Mass.), acclimatized to the new vivarium for 5-7 days and used for the surgery when they weighed 200-230 g. Rats were anesthetized using box induction with 5% isoflurane and then maintained on 0.5%-1.5% isoflurane in medical grade oxygen via a facemask. In order to assure consistent reduction of cerebral blood flow (CBF) throughout the procedure, we affixed a small hand-made adaptor for the Laser Doppler probe (Moor Instruments, Wilmington, Del.) to the surface of the skull. The center of the adapter was 5 mm lateral to the central fusion line and 2.5 mm posterior to bregma. Instant adhesive and dental cement were applied to the base and around the edges of the small plastic adapter to hold the Doppler probe. The adapter with the attached probe remained in place throughout the MCAO surgery to confirm continuous occlusion and later the establishment of reperfusion. Focal cerebral ischemia was then induced by occlusion of the left middle cerebral artery (MCA). The left common carotid artery was surgically exposed, the external carotid artery was ligated distally from the common carotid artery, and a silicone rubber coated nylon monofilament with a tip diameter of 0.43±0.02 mm (Doccol Corp., Redlands, Calif.) was inserted into the external carotid artery and advanced into the internal carotid artery to block the origin of the middle cerebral artery (when maximum CBF reduction observed). The filament was kept in place for 90 min and then withdrawn and removed from the blood vessel to restore blood supply. […] Neurological deficits were scored according to a 4-score test and a tactile and/or proprioceptive limb-placing test as follows: 1) 4-score test (higher score for more severe neurological deficits): 0=no apparent deficit; 1=contralateral forelimb is consistently flexed during suspension by holding the tail; 2=decreasing grip ability on the contralateral forelimb while tail pulled; 3=spontaneous movement in all directions but circling to contralateral side when pulled by the tail; 4=spontaneous contralateral circling or depressed level of consciousness. 2) 14-score limb placing test (lower score for more severe neurological deficits): Proprioception, forward extension, lateral abduction, and adduction were tested with vision or tactile stimuli. For visual limb placing, rats were held and slowly moved forward or lateral toward the top of a table. Normal rats placed both forepaws on the tabletop. Tactile forward and lateral limb placing were tested by lightly contacting the table edge with the dorsal or lateral surface of a rat's paw while avoiding whisker contact and covering the eyes to avoid vision. For proprioceptive hind limb placing, each rat was pushed along the edge of an elevated platform in order to test proprioceptive hind limb adduction. The paw was pulled down and away from the platform edge, and the ability to retrieve and place the paw on the table surface upon sudden release was assessed. For each test, limb placing scores were 0=no placing; 1=incomplete and/or delayed (>2 seconds) placing; or 2=immediate and complete placing. For each body side, the maximum summed visual limb placing score was 4 and the maximum summed tactile and proprioceptive limb placing score, including the platform test, was 10.
# Rats were euthanized with an overdose of isoflurane. Blood samples for determination of electrolytes, pH, pCO2, glucose and hemoglobin (I-STAT; Abbott, Princeton, N.J.) were drawn from the vena cava and brains quickly removed and sectioned into eight 2-mm thick slices starting from the frontal pole. Slices were then fixed in 10% buffer formalin embedded in paraffin and sectioned at 5 Sections were stained with hematoxylin & eosin and scanned. […]
# [7] = system: experimental autoimmune encephalomyelitis (EAE); settings: mice; cited from earlier work
compound,measurement,setting,value
"Clc1ccccc1C(c1ccccc1)(c1ccccc1)n1cccn1 [TRAM-34, 1-[(2-chlorophenyl)diphenylmethyl]-1H-pyrazole]",microglia activation / mitogenic effect induced by human brain AβO,[1],blocked
same,Kp,"[2]; Wistar, in vivo",1.2
same,half-life,"[2]; male, Wistar, in vivo, iv, 10 mg/kg, half-life, rat plasma, calculated from elimination part of i.v. plot",~120 min
same,"total plasma and brain levels, peak","[2]; i.p. 10 mg/kg, between 30 min and 1 hour",around 2.5
same,plasma peaks,[2]; s.c. 120 mg/kg,2.5 ± 1 µM
same,fraction unbound,[3],0.02
same,unbound (=free) fraction,[4]; rat plasma,2.0±0.4% and 2%
same,plasma protein binding,[4]; rat plasma spiked with 50 and 100 μM,98%
same,amount of activated (ED1+) microglia/macrophages in infarcted hemisphere,[5],reduced
same,"mean infarct area, % of ipsolateral triphenyltetrazolium chloride positive hemisphere area","[5]; control 18.8±3.5%, mean±SEM, P=0.007",6.6±1.9%
same,"neurological deficit, 14-score system","[6]; 10 mg/kg group, 12 h after reperfusion (start of treatment), vehicle 4.3±0.94",4.8±0.63
same,"neurological deficit, 4-score system","[6]; 10 mg/kg group, 12 hours after reperfusion (start of treatment), vehicle 3.1±0.20",3.3±0.50
same,"neurological deficit, 4-score system","[6]; 10 mg/kg, 196 h (=7 days) after reperfusion, vehicle 1.5±0.30, P=0.24",0.8±0.10
same,"neurological deficit, 14-score system","[6]; 10 mg/kg, 196 h (=7 days) after reperfusion, vehicle 7.5±0.46, P=0.004",9.8±0.01
same,microglia activation (ED1+ area),"[6]; 10 mg/kg, delayed administration",did not result in a significant reduction
same,brain shrinkage,"[6]; 10 mg/kg, P=0.11, not significant",tended to reduce
same,number of TUNEL-positive cells in cortex and striatum,"[6]; 10 mg/kg, P=0.143 cortex, 0.230 striatum",did not reach statistical significance
same,mean infarct size (H&E defined lesion area),"[6]; 10 mg/kg, mean±SEM, P=0.039",11.3±2.8%
same,"neurological deficit, 14-score system","[6]; 40 mg/kg group, 12 h after reperfusion (start of treatment), vehicle 4.3±0.94",3.4±0.46
same,"neurological deficit, 4-score system","[6]; 40 mg/kg group, 12 hours after reperfusion (start of treatment), vehicle 3.1±0.20",3.0±0.80
same,"neurological deficit, 4-score system","[6]; 40 mg/kg, day-7 / 196 h after reperfusion, vehicle 1.5±0.30, P=0.02",0.5 and 0.4±0.01
same,"neurological deficit, 14-score system","[6]; 40 mg/kg, day-7 / 196 h after reperfusion, vehicle 7.5±0.46, P<0.001",11±0.38 and 12
same,number of apoptotic (TUNEL positive) cells in cortex and striatum,"[6]; 40 mg/kg, P=0.0067 cortex, 0.033 striatum",significantly reduced
same,average number of surviving NeuN+ neurons in the infarcted hemisphere,"[6]; 40 mg/kg, P=0.052",increase
same,mean infarct size (H&E defined lesion area),"[6]; 40 mg/kg, P=0.004",8.1±1.9%
same,ED1+ area in the infarcted hemisphere,"[6]; 40 mg/kg, vehicle 3770.6±594.2, P=0.03, mean±SEM",1632.6±363.75 pixels/mm^2
same,"reduction of infarct area (H&E, day-7)","[6]; 10 or 40 mg/kg i.p. twice daily 7 days from 12 h after reperfusion, both doses",~50%
same,experimental autoimmune encephalomyelitis (EAE),[7],treats
